Read-outs that look alike come from different tables or passages of the source.
How the values were obtained:
[1] = tested on: perforant path / dentate gyrus of the hippocampus (fEPSPs); experiment: Effect on evoked fEPSPs in rat hippocampus (anesthetized animals, in vivo); set-up: species or system Rat (Long Evans); details: for Minimum Effective Dose: IP, dose range 5-20 mg/kg; for duration of the fEPSP effect: about 2 hours monitoring, CX717 at 20 mg/kg; for effect on evoked fEPSP / maximum increase in fEPSP amplitude: intraperitoneal administration
Experimental: Further selection and characterization of ampakines to identify anti-ADHD drugs useful within the invention involved electrophysiological studies (to measure “electrically evoked field excitatory postsynaptic potentials” (fEPSPs) for test compounds). CX717 and CX1739 were tested for their ability to facilitate synaptic responses in vivo in anesthetized animals following peripheral administration. Stimulating and recording electrodes were inserted into the perforant path and dentate gyrus of the hippocampus, respectively. Electrically evoked field excitatory postsynaptic responses (fEPSPs) were measured before administration of ampakines, and for approximately 2 hours following intraperitoneal administration of ampakines.
Electrically evoked field excitatory postsynaptic potentials (fEPSPs) were determined for the exemplary test ampakines CX717 and CX1739 as described. […] The response magnitude was related to the plasma levels achieved during the study. […] Both ampakines appear to produce a 25% maximum increase in fEPSP amplitude.

Rat (Wistar) = experiment: Novel object recognition memory; type: in vivo; details: for Minimum Effective Dose: IP
Experimental: Additional Novel Object Recognition behavioral model studies were conducted to further elucidate the anti-ADHD activities of CX717 and CX1739. Rats were habituated to a test box for two 5 minute sessions on consecutive days. Each test session consisted of two phases: in the first phase (“sample period”), two identical objects (A1 and A2) were placed in the far corners of the box, and the rats were allowed to explore the objects. After a 24 hour delay, rats were re-introduced to the arena (“test period”) now containing a third identical copy of the familiar object (A3) and a new object (B), placed in the same locations as in the first phase, and the total time spent exploring each of the objects was determined over a 3-min duration. For CX717 drug treatment, rats were dosed 30 min prior to each sample session with either 0.1, 0.3, 1.0 mg/kg CX717 (p.o.); vehicle (0.5% methylcellulose, p.o.) or 0.9 mg/kg Aricept (E2020, i.p.). The exploration times for the full 3-min were calculated and expressed as the discrimination index, d1, defined as the absolute difference in time spent exploring the novel object minus the familiar object.
For CX1739 Male Wistar rats were assessed for cognitive ability in a test apparatus comprising an open-field arena placed in a sound-attenuated room under dimmed lighting. Rat exploration and activity were captured by a digital camera, and viewed on a monitor in an adjoining area. Following a 5-minute habituation period, each animal was placed in the test arena in the presence of two identical objects (plastic shapes) and the time spent actively exploring the objects during a 5-minute test period (T1) was recorded. After 24 hours, each rat was again placed in the test arena for 5 minutes (T2) in the presence of one familiar object and one novel object, and the time spent exploring both objects was recorded. The Recognition Index was calculated as the percentage of total exploration time spent exploring the novel object during the retention session (T2), which provides the primary measure of cognitive function in this assay.
The Novel object recognition (NOR) paradigm is a rodent model of recognition learning memory retrieval and takes advantage of the spontaneous behavior of rodents to investigate a novel object compared with a familiar object. NOR has been employed extensively to indicate cognition-enhancing properties of drug candidates, predictive of therapeutic efficacy of positively-assaying drugs for reducing ADHD symptoms in humans.

Rat (SD) = experiment: Amphetamine-stimulated locomotion and rearing in rats; type: in vivo; details: for Minimum Effective Dose: PO, dose range 1-10 mg/kg
Experimental: Effects of exemplary low impact ampakines were also evaluated in mice for the ability to inhibit amphetamine-stimulated locomotor activity. Mice were placed in the locomotor chamber for 20 min to habituate, removed, injected with either vehicle or anti-ADHD ampakine (CX717), and 5 min later injected with 2 mg/kg i.p. Amphetamine. Mice were returned to the locomotor chamber 10 min later, and their activity measured for a further 15 min. In related studies, adult male CD1 mice or male Sprague-Dawley rats were acclimated in a test chamber for 20 minutes removed and dosed i.p. (mice) or orally (rats) with CX1739, vehicle, or a reference compound. Five (mice) or 10 (rats) were then injected with amphetamine (2 mg/kg, i.p.) or saline vehicle and were returned to the activity test chamber.

[2] = tested on: hippocampal slices (CA1 population spikes)
Experimental: Slice Seizure Assay In these studies extracellular field potentials recording (Population Spikes) in hippocampal slices were used to determine convulsant activity (potential seizure liability). Transverse 300-400 μm hippocampal slices were taken from adult male Sprague-Dawley rats (4-6 week old) and incubated in a submerge slice recording chamber system for 30 to 60 min. The chamber was perfused with oxygenated artificial cerebral spinal fluid (ACSF) comprising (in mM): NaCl 124, KCl 3.0, KH2PO4 1.25, CaCl2.34, MgSO4 2.5, NaHCO3 26 and glucose 10 at room temperature. Population Spike (PS) recordings were made with glass electrodes filled with 2 M NaCl (1-5 megaohm) places in the region of pyramidal cell body of CA1. Electrical stimuli were produced with twisted bipolar nichrome wire electrodes in the Schaffer-commissural fiber afferents. Population spike was induced by activating Schaffer-commissural fiber using single pulse stimulation with delivered at 0.05 Hz. The maximal amplitude of PS was determined by increase stimulating intensity till second spike appears. Then the intensity was decreased to induce a 50% to 60% of maximal response. The amplitude of PS was measured for each response and plotted against time. At same time the amplitude of second PS and/or number of PS was measured and plotted against time. The size of the second PS and numbers of PS were used to estimate the seizure potential or seizure state. With 20 to 50 min stable baseline established testing compound was perfused for 10 to 20 min at each concentration to observe the effect. […] The perfusion then was switched to control ACSF and continued to record until drug effect was washed back to the baseline. CX717 and CX1739 exemplary test ampakine compounds were prepared by dissolving in DMSO and then added to ACSF.
The upper 3 panels of FIG. 5 show amplitudes for PS 1, 2 and 3 m respectively. Lower panel is the measurement of the number of PS.

Row | Structure (SMILES) | Minimum Effective Dose [1] | duration of the fEPSP effect [1] | effect on evoked fEPSP [1] | maximum increase in fEPSP amplitude [1] | d1 scores (discrimination index) (Rat (Wistar); 0.3 mg/kg, compared to vehicle) | Minimum Effective Dose (Rat (Wistar)) | amphetamine-stimulated locomotion activity (Rat (SD); 3 mg/kg) | amphetamine-stimulated rearing (Rat (SD); 1 and 3 mg/kg) | Minimum Effective Dose (Rat (SD)) | seizure activity (population spikes) ([2]; concentrations up to 600 uM) | preference for novel object exploration versus positive control (Rat (Wistar); 0.03 mg/kg) | preference for exploring the novel object (Rat (Wistar); rat, in vivo) | amphetamine-stimulated rearing behavior (Rat (SD); rats, all doses tested) | seizure activity (population spikes) ([2]; 100 μM for 20 min and then 200 μM for another 20 min) | amplitude of the first PS ([2]; 100 μM then 200 μM perfusion)
1 | O=C(c1ccc2nonc2c1)N1CCOCC1 [CX717, 1-(benzofurazan-5-ylcarbonyl)morpholine] | 5 mg/kg | plateaued for the duration of monitoring | long-lasting increase in the evoked fEPSP in a concentration-dependent manner | ~25% | significant increase | 0.3 mg/kg | significant decrease | inhibits rearing | 1 mg/kg | did not display seizure activity |  |  |  |  | 
2 | CN(C(=O)c1ccc2nonc2c1)C1CCOCC1 [CX1739, N-Methyl-N-tetrahydro-2H-pyran-4-yl-[2,1,3]-benzoxadiazole-5-carboxamide] | 5 mg/kg | declined to baseline after two hours | substantial increase in EPSP amplitude | ~25% |  | 0.03 mg/kg |  |  | 1 mg/kg |  | comparable to that of 3 mg/kg galantamine | significant increase | modest reduction | no sign of seizure activity | did not change the amplitude of the first PS

Source: patent publication US20210340130A1, “Compositions and methods for treating attention deficit disorders” (priority 2016, published 2021)
